Measured values taken from patent US10532065B2, “Bisphosphonic acid derivative and application for same” (NAGASAKI UNIVERSITY, priority 2014, dated 2020).
“And” between values parts separate entries of the source, which are not always exact repeats. Equal values may be shown once. Read-outs that look alike come from different tables or passages of the source.

Tests used:
Assay type in all cases: cell-based
PEER cells = assay: PEER tumor cell growth inhibition (CellTiterGlo); conditions: T cell acute lymphocytic leukemia, 4 days culture
Method: To quantitatively study an action of compound 7, which is a bisphosphonic acid POM ester derivative, on various hematologic tumor-derived lymphoma and myeloidic leukemia cells, the concentration of a compound that inhibits cell proliferation to half was calculated as IC50, and a direct antitumor effect was studied from the value thereof. […] First, MOLT-4, THP-1, SCC-3, PEER, RAMOS-RA1, C1R, MOLT-3, Raji, U937, K562, Daudi were cultured in RPMI1640 medium supplemented with 10% calf serum at 37° C. under 5% CO2 atmosphere while maintaining log phase. The cells were recovered, and centrifuged at 1,700 rpm, 4° C. for 5 min. The supernatant was removed, and suspended in RPMI1640 medium supplemented with 10% calf serum to 500 cells/50 μl. On the other hand, 10 mM stock solution of compound 7 which is a bisphosphonic acid POM ester derivative was serially diluted 2-fold from 200 μM. In addition, 10 mM stock solution of compound 14 which is bisphosphonic acid was serially diluted 2-fold from 2 mM. Then, the cell suspension (50 μl, 500 cells) and the compound solution (50 μl) were added to a flat-bottomed 96 well plate and cultured at 37° C. under 5% CO2 atmosphere for 4 days. Then, 100 μl of CellTiterGlo solution was added, and the mixture was pipetted 10 strokes, and transferred to a 96 well OptiPlate. […]

PC-3 cells = assay: PC-3 tumor cell growth inhibition (CellTiterGlo); conditions: PC-3, Prostate cancer, 4 days culture
Method: First, EJ-1, 786-0, MKN1, OST, PC-3, PK-1, LK-2, G-361, TFK-1, MRK-nu-1 were cultured in RPMI1640 medium supplemented with 10% calf serum at 37° C. under 5% CO2 atmosphere while maintaining log phase. The cells were recovered by a conventional EDTA trypsin treatment, and centrifuged at 1,700 rpm, 4° C. for 5 min. The supernatant was removed, and suspended in RPMI1640 medium supplemented with 10% calf serum to 500 cells/50 μl. On the other hand, 10 mM stock solution of compound 7 which is a bisphosphonic acid POM ester derivative was serially diluted 2-fold from 200 pM. In addition, 10 mM stock solution of compound 14 which is bisphosphonic acid was serially diluted 2-fold from 2 mM. Then, the cell suspension (50 μl, 500 cells) and the compound solution (50 μl) were added to a flat-bottomed 96 well plate and cultured at 37° C. under 5% CO2 atmosphere for 4 days. Then, 100 μl of CellTiterGlo solution was added, and the mixture was pipetted 10 strokes, and transferred to a 96 well OptiPlate. After standing at room temperature for 10 min, the luminescence was measured by a luminometer and IC50 value was calculated.

U937 cells = assay: U937 cell growth inhibition (direct antitumor action, CellTiterGlo); conditions: for IC50: U937 cell growth inhibition, 4 days culture
Method: The direct antitumor action of bisphosphonic acid POM ester and bisphosphonic acid was studied by comparison using U937.
The direct antitumor action of various bisphosphonic acid POM esters was studied by comparison using U937 and EJ-1. The measurement was performed according to Experimental Example 2 and Experimental Example 4.

EJ-1 cells / γδ T cells = assay: TNF-α production from γδ T cells stimulated by compound-pretreated EJ-1 cells (indirect antitumor action, ELISA); conditions: for EC50: EJ-1 pretreated 4 hr with compound, 16 hr with γδ T cells, TNF-α ELISA, read-out: TNF-α50
How it was run: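 EJ-1 cells exposed 4 h at 37 °C to 10-fold serial dilutions (POM esters from 20 µM, bisphosphonic acids from 200 µM), washed three times, then co-cultured with γδ T cells. Supernatant TNF-α measured by ELISA against a standard curve, in triplicate; TNF-α50 = […].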

786-0 cells / γδ T cells = assay: TNF-α production from γδ T cells stimulated by compound-pretreated 786-0 cells; conditions: 786-0, Renal cell carcinoma, 4 hr pretreatment, 16 hr with γδ T cells, read-out: TNF-α50
Method: (§1) Since the above-mentioned results of Experimental Example confirm that the activity of bisphosphonic acids becomes high by POM esterification in various tumor cells, the TNF-α production induction ability of more number of tumor cells was quantitatively studied. […] Thereto was added a solution (500 μl) of compound 7 obtained by serially diluting 10 mM stock solution 10-fold from 20 μM, or a solution (500 μl) of compound 14 obtained by serially diluting 10 mM stock solution 10-fold from 200 μM, and the cells were suspended well. These conical tubes were stood at 37° C. for 4 hr, and the cells were washed 3 times with 5 ml of culture medium. To these cells was added 500 μl of medium, and the cells were suspended well. […] The cell culture medium was suspended well, and the plate was centrifuged at 1,700 rpm, 4° C. for 2 min and the culture supernatant (150 μl) was taken and placed in another round-bottomed 96 well plate. The plate was frozen at −80° C. overnight, left standing at room temperature for 1 hr, stirred well and 100 μl thereof was subjected to ELISA of TNF-α. The content of TNF-α was calculated from the analytical curve of TNF-α. These were performed in triplicate, and TNF-α50 of bisphosphonic acid POM ester derivative (compound 7) and bisphosphonic acid (compound 14) was calculated and summarized in Table 8.

G-361 cells / γδ T cells = assay: TNF-α production from γδ T cells stimulated by compound-pretreated G-361 cells; conditions: G-361, Melanoma, 4 hr pretreatment, 16 hr with γδ T cells, read-out: TNF-α50
Method: as §1

| SMILES | IC50 (PEER cells; 96 h) [nM] | IC50 (PC-3 cells; Homo sapiens, 96 h) [nM] | IC50 (U937 cells; Homo sapiens, U-937, 96 h) [nM] | EC50 (EJ-1 cells / γδ T cells; EJ1) [nM] | EC50 (786-0 cells / γδ T cells; Homo sapiens) [nM] | EC50 (G-361 cells / γδ T cells; Homo sapiens) [nM] | IC50 (PEER cells) [nM] | IC50 (PC-3 cells) [nM] | IC50 (U937 cells) | direct antitumor activity (in words) (U937 cells; U937 growth inhibition) | EC50 (EJ-1 cells / γδ T cells) [nM] | TNF-α production induction activity (in words) (EJ-1 cells / γδ T cells; EJ-1 pretreated with compound, γδ T cells) | EC50 (786-0 cells / γδ T cells) [nM] | EC50 (G-361 cells / γδ T cells) [nM] |
| --- | --- | --- | --- | --- | --- | --- | --- | --- | --- | --- | --- | --- | --- | --- |
| O=P(O)(O)C(CNc1nccs1)P(=O)(O)O [Compound 14, 2-(thiazol-2-ylamino)ethylidene-1,1-bisphosphonic Acid, reference compound] | 82000 | 100000 | 26000 | 68000 | > 100000 | 5100 |  |  |  |  |  |  |  |  |
| CC(C)(C)C(=O)OCOP(=O)(OCOC(=O)C(C)(C)C)C(CNc1nccs1)P(=O)(OCOC(=O)C(C)(C)C)OCOC(=O)C(C)(C)C [Compound 7, tetrakispivaloyloxymethyl 2-(thiazol-2-ylamino) ethylidene-1,1-bisphosphonate] |  |  |  |  |  |  | 23 | 220 | 280 nM and 260 nM | particularly high activity | 60 | high activity | 65 | 63 |
